Read-outs that look alike come from different tables or passages of the source.
Biological target: ALK kinase (Homo sapiens, UniProt Q9UM73)
Assay: ALK kinase assay
Assay type: biochemical
Procedure: An in vitro assay which determines the ability of a test compound to inhibit ALK kinase. a) kinase-tagged T7 phage strains were prepared in an E. coli host derived from the BL21 strain. E. coli were grown to log-phase and infected with T7 phage and incubated with shaking at 32° C. until lysis. The lysates were centrifuged and filtered to remove cell debris. The remaining kinases were produced in HEK-293 cells and subsequently tagged with DNA for qPCR detection. […] The liganded beads were blocked with excess biotin and washed with blocking buffer (SeaBlock (Pierce), 1% BSA, 0.05% Tween 20, 1 mM DTT) to remove unbound ligand and to reduce non-specific binding. […] All reactions were performed in polystyrene 96-well plates in a final volume of 0.135 ml. […] The kinase concentration in the eluates was measured by qPCR. […]
b) An alternative method to conduct the kinase assay with the following condition and procedure: Reagent: Base Reaction buffer; 20 mM Hepes (pH 7.5), 10 mM MgCl2, 1 mM EGTA, 0.02% Brij35, 0.02 mg/ml BSA, 0.1 mM Na3VO4, 2 mM DTT, 1% DMSO.
1. Preparing indicated substrate in freshly prepared Base Reaction Buffer
2. Delivering any required cofactors to the substrate solution above
3. Delivering indicated kinase into the substrate solution and gently mix
4. Delivering compounds in DMSO into the kinase reaction mixture
5. Delivering ^33P-ATP (specific activity 0.01 μCi/μl final) into the reaction mixture to initiate the reaction.
6. Incubating kinase reaction for 120 min. at room temperature
7. Reactions are spotted onto P81 ion exchange paper (Whatman #3698-915)
8. Washing filters extensively in 0.75% Phosphoric acid. […]
c) An alternative method to conduct the kinase assay with the following condition and procedure: The assay was performed using Kinase-Glo Plus luminescence kinase assay kit (Promega). It measures kinase activity by quantitating the amount of ATP remaining in solution following a kinase reaction. The luminescent signal from the assay is correlated with the amount of ATP present and is inversely correlated with the amount of kinase activity.
The compound were diluted in 10% DMSO and 5 μl of the dilution was added to a 50 μl reaction so that the final concentration of DMSO is 1% in all of reactions. All of the enzymatic reactions were conducted at 30° C. for 40 minutes. The 50 μl reaction mixture contains 40 mM Tris, pH 7.4, 10 mM MgCl2, 0.1 mg/ml BSA, 1 mM DTT, 0.2 mg/ml substrate peptide, 10 μM ATP and ALK (Table 2.3.1). After the enzymatic reaction, 50 μl of Kinase-Glo Plus Luminescence kinase assay solution (Promega) was added to each reaction and incubate the plate for 5 minutes at room temperature. Luminescence signal was measured using a BioTek Synergy 2 microplate reader. ALK activity assays were performed in duplicate at each concentration. The luminescence data were analyzed using the computer software, Graphpad Prism. The difference between luminescence intensities in the absence of ALK (Lut) and in the presence of ALK (Luc) was defined as 100% activity (Lut−Luc). Using luminescence signal (Lu) in the presence of the compound, % activity was calculated as % activity={(Lut−Lu)/(Lut−Luc)}×100%, where Lu=the luminescence intensity in the presence of the compound (all percent activities below zero were shown zero in the table). The values of % activity versus a series of compound concentrations were then plotted using non-linear regression analysis of Sigmoidal dose-response curve generated with the equation Y=B+(T−B)/1+10^((Log EC50−X)×Hill Slope), where Y=percent activity, B=minimum percent activity, T=maximum percent activity, X=logarithm of compound and Hill Slope=slope factor or Hill coefficient. The IC50 value was determined by the concentration causing a half-maximal percent activity.

Sequence of ALK kinase (Q9UM73 19-1620): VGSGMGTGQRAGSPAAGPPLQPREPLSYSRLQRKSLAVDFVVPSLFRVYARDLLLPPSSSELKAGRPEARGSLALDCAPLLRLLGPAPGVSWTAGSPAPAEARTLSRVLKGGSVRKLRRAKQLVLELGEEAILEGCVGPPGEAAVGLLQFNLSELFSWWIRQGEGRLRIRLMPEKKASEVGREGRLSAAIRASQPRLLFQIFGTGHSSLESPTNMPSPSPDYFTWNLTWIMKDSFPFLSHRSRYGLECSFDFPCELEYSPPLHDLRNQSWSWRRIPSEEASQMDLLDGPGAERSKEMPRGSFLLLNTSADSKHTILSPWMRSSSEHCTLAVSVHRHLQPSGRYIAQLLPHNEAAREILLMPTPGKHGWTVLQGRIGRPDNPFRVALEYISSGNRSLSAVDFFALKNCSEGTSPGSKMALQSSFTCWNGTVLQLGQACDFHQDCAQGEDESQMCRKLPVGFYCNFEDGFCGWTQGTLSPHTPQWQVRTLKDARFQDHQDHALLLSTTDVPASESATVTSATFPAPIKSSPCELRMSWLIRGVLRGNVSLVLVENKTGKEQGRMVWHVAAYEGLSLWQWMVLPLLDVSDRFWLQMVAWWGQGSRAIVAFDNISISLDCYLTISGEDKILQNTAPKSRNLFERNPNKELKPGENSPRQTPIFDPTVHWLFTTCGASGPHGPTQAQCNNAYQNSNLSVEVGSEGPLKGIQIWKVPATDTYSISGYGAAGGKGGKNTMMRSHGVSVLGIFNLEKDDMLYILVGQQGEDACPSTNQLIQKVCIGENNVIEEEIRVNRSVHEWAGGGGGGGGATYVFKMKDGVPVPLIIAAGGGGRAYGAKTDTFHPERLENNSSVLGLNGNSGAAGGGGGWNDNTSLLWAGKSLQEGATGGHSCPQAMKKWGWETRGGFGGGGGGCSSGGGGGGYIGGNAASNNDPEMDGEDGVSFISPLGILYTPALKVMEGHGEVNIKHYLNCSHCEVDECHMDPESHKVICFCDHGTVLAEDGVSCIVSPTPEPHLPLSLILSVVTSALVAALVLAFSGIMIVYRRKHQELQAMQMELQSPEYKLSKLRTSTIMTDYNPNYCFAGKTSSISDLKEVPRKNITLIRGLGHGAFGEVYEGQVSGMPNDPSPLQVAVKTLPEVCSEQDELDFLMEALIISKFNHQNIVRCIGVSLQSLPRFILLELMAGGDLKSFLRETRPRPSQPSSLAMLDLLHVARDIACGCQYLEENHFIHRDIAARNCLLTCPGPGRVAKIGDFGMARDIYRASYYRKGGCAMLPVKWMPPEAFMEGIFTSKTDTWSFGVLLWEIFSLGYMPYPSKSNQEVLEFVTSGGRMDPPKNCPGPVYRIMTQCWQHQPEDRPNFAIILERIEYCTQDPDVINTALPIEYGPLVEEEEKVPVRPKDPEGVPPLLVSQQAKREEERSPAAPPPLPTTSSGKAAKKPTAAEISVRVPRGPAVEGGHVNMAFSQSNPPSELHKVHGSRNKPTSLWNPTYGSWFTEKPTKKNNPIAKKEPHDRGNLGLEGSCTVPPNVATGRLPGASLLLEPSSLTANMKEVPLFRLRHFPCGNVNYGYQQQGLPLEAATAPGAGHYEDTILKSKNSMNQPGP

- IC50 (ALK kinase assay, read-out: ALK (IC50 grading)): ≤ 100 nM
- IC50 (read-out: IC50 in the ALK kinase assay): 1.35 nM
SMILES: [2H]C([2H])([2H])C([2H])([2H])N1CCC(n2cc(-c3cnc(N)c(O[C@H](C)c4c(Cl)ccc(F)c4Cl)c3)cn2)CC1 [Compound 22, (R)-3-(1-(2,6-dichloro-3-fluorophenyl)ethoxy)-5-(1-(1-d5-ethylpiperidin-4-yl)-1H-pyrazol-4-yl)pyridin-2-amine]
